According to ChEMBL document CHEMBL5236656, “The effect of diphenylethane side-chain substituents on dibenzocyclohexadiene formation and their inhibition of α-synuclein aggregation in vitro” (Bioorg Med Chem, 2023):

How the values were obtained:
[1] = target: Alpha-synuclein (Homo sapiens) (UniProt P37840); test: Inhibition of alpha-Synuclein (unknown origin) aggregation assessed as aggregation by measuring ThT fluorescence at 100 uM incubated for 5 days by ThT fluorescence assay (reference value: 100%); design: scale not given: the % may be the effect or the level left; details: time 5.0 day
[2] = target: Alpha-synuclein (Homo sapiens) (UniProt P37840); test: Inhibition of alpha-Synuclein (unknown origin) aggregation assessed as aggregation by measuring ThT fluorescence at 500 uM incubated for 5 days by ThT fluorescence assay (reference value: 100%); design: scale not given: the % may be the effect or the level left; details: time 5.0 day

Activity [1] [%] | Activity [2] [%] | SMILES
33.6 | 25.9 | Oc1cc2ccc3cc(O)c(O)cc3c2cc1O
44.4 | 9.2 | CC(C)(c1ccc(O)c(O)c1)C(C)(C)c1ccc(O)c(O)c1
56.1 | 39.8 | CC1(C)c2cc(O)c(O)cc2-c2cc(O)c(O)cc2C1(C)C
27.8 | 10.7 | Oc1cc2c(cc1O)-c1c(ccc(O)c1O)CC2
31.8 | 6.1 | CC(c1ccc(O)c(O)c1)C(C)c1ccc(O)c(O)c1 (mixture of isomers)
28.6 | 13.6 | C[C@@H]1Cc2cc(O)c(O)cc2-c2cc(O)c(O)cc2C[C@@H]1C
47.3 | 19.3 | Cc1c(C)c2cc(O)c(O)cc2c2cc(O)c(O)cc12
22.2 | 16.8 | Oc1cc2c(cc1O)-c1cc(O)c(O)cc1CC2
66.1 | 45.6 | CC1c2cc(O)c(O)cc2-c2c(ccc(O)c2O)C1C (configuration not stated)
35.6 | 8.1 | Oc1ccc(CCc2ccc(O)c(O)c2)cc1O
36.1 | 15.5 | CC1(C)c2cc(O)c(O)cc2-c2c(ccc(O)c2O)C1(C)C
